The structures appear in SMILES notation. Where a name gives a salt, the structure may show the parent alone.

The test system of the experiment is rabbit urinary bladder strip. Nature of the experiment: relaxant effect on bethanechol-contracted rabbit urinary bladder strips (organ bath). The class given is cell-based. To be noted: for Decrease in force of contraction of rabbit bladder strip / Increase in length of rabbit bladder strip: strips pre-contracted with bethanechol 150 µM; for Increase in length of rabbit bladder strip: cumulative dosing, read 5 minutes after addition; for % background relaxation: term not explained. On the procedure: The pharmological actions of one anti-spasmodic compound was studied in a rabbit urinary bladder strip preparation. In general, longitudinal strips were prepared from the base of freshly isolated rabbit bladders and were then suspended under near-physiological conditions in tissue baths. The strips were attached to force transducers and both contractile and relaxant activity was measured. To measure the relaxant effects on the anti-spasmodic compounds on previously-contracted bladder strips, the strips were initially exposed to the muscarinic receptor agonist bethanechol and allowed to reach a steady level of contractile activity for 20 minutes. At this point cumulative dose-responses to the compound was recorded. The rabbit abdomens were opened through a vertical midline incision. The bladder and urethra were dissected free of all surrounding tissues, removed and placed in aerated (95% O₂:5% CO₂) Kreb's-bicarbonate buffer (pH:7.4) of the following composition ([…]):KCl 4.6, CaCl₂·2H₂O 2.5, KH₂PO₄ 1.2, MgSO₄·7H₂O 1.2, NaCl 118.2, NaHCO₃ 24.8, and glucose 10.0. Longitudinal muscle strips were prepared from the bladder base (approximately 6 mm x 4 mm) and suspended in an organ bath containing Kreb's buffer (37°C) which was continuously aerated with O₂:CO₂ (95%:5%). Tissues were allowed to equilibrate to a tension of 2 gm for sixty minutes during which time buffer was replaced at 20 minute intervals. The contractile and relaxant responses of the muscle strips were measured isometrically with a Statham UC3 force-displacement transducer and recorded on an Electronics for Medicine DR8 oscillographic recorder. Bethanechol was employed as the representative cholinergic agonist and, following equilibration, was added to the baths for a final concentration of 150 µM. The tissues were allowed 20 minutes to achieve a maintained level of contraction in response to bethanechol and, at this point, cumulative dose-response measurements for one anti-spasmodic compound were started at concentrations ranging from 10⁻⁸ M to 10⁻⁴M. Solutions were added in volumes up to 100 µl and were prepared fresh each day by dissolving them in distilled:deionzed water. Responses were measured 5 minutes following any particular cumulative addition and were expressed as a percentage of maximal relaxation (e.g. maximal relaxation is the baseline or pre-bethanechol level of muscle tone).
Dose responses, measured from the standard bethanechol-contracted rabbit bladder strips, at various concentrations of 4-t-butyl-benzoyl-thio-S-(2-diethylaminoethyl)-ester·HCl [drawing 12] are presented in Table I: […]

For `CCN(CC)CCSC(=O)c1ccc(C(C)(C)C)cc1` [4-t-butyl-benzoyl-thio-S-(2-diethylaminoethyl)-ester·HCl], the “Decrease in force of contraction of rabbit bladder strip” value was 0.67 gm (10^-4 moles/liter); 0.27 gm (10^-5 moles/liter); 0.08 gm (10^-6 moles/liter); 0.04 gm (10^-7 moles/liter); 0.02 gm (10^-8 moles/liter). Also, the “Increase in length of rabbit bladder strip” value is 3.2 cm (10^-4 moles/liter); 1.3 cm (10^-5 moles/liter); 0.4 cm (10^-6 moles/liter); 0.2 cm (10^-7 moles/liter); 0.1 cm (10^-8 moles/liter). Moreover, the “% background relaxation” value runs as follows: (10^-4 moles/liter) 31.8%; (10^-5 moles/liter) 9.5%; (10^-6 moles/liter) 0.0%; (10^-7 moles/liter) 0.0%; (10^-8 moles/liter) 0.0%. Besides, where the note is “Oryctolagus cuniculus, 5 min, 10^-4 moles/liter, maximal relaxation = pre-bethanechol level of muscle tone, read-out: % of maximum relaxation”, the inhibition at 100 µM turned out to be 40.5%. For the same compound, for the setting “Oryctolagus cuniculus, 5 min, 10^-5 moles/liter, maximal relaxation = pre-bethanechol level of muscle tone, read-out: % of maximum relaxation”, the inhibition at 10 µM came to 16.5%. Besides, the inhibition at 1 µM (Oryctolagus cuniculus, 5 min, 10^-6 moles/liter, maximal relaxation = pre-bethanechol level of muscle tone, read-out: % of maximum relaxation) was 5.2%. Besides, the inhibition at 0.1 µM (Oryctolagus cuniculus, 5 min, 10^-7 moles/liter, maximal relaxation = pre-bethanechol level of muscle tone, read-out: % of maximum relaxation) was 2.6%. Also, the inhibition at 0.01 µM (Oryctolagus cuniculus, 5 min, 10^-8 moles/liter, maximal relaxation = pre-bethanechol level of muscle tone, read-out: % of maximum relaxation) was 1.3%.

The record behind these values is EP0267319A1, “Anti-spasmodic agents having a ring in the main chain” (United Pharmaceuticals, Inc., priority 1986, dated 1988).
